Experimental data reported in patent US11053213B2, “Pharmaceutical compounds” (ALMAC DISCOVERY LIMITED, priority 2016, dated 2021).

Biological target: USP19 (Homo sapiens (Human), UniProt O94966)
Experiment: USP19 activity assay (fluorescence polarisation, Ubiquitin-Lys-TAMRA substrate)
Assay type: biochemical
Conditions: full-length USP19 2.5 nM, 30 min pre-incubation, Ub substrate 500 nM; average of at least two duplicate experiments
Experimental: Unless otherwise stated, all other reagents were purchased from Sigma. Enzymatic reactions were conducted in black flat bottom polystyrene 384-well plates (Nunc) and 30 μL total volume. […] Inhibitors were stored as 10 mM DMSO stocks in an inert environment (low humidity, dark, low oxygen, room temperature) using the Storage Pod System and serial dilutions were prepared in buffer just prior to the assay (from 200 μM to 2 pM, 8-18 data point curve). Following incubation at RT for 30 min, the enzymatic reactions were initiated by dispensing the Ub substrate (500 nM, 10 μL). FP was measured every 15 min over a period of 90 min (within the linear range of the assay) using a Synergy 4 plate reader (BioTek) exciting at 530 nm and measuring the amount of parallel and perpendicular light at 575 nm. The FP signal was subsequently normalised to the no compound control.

USP19, sequence (O94966 whole entry): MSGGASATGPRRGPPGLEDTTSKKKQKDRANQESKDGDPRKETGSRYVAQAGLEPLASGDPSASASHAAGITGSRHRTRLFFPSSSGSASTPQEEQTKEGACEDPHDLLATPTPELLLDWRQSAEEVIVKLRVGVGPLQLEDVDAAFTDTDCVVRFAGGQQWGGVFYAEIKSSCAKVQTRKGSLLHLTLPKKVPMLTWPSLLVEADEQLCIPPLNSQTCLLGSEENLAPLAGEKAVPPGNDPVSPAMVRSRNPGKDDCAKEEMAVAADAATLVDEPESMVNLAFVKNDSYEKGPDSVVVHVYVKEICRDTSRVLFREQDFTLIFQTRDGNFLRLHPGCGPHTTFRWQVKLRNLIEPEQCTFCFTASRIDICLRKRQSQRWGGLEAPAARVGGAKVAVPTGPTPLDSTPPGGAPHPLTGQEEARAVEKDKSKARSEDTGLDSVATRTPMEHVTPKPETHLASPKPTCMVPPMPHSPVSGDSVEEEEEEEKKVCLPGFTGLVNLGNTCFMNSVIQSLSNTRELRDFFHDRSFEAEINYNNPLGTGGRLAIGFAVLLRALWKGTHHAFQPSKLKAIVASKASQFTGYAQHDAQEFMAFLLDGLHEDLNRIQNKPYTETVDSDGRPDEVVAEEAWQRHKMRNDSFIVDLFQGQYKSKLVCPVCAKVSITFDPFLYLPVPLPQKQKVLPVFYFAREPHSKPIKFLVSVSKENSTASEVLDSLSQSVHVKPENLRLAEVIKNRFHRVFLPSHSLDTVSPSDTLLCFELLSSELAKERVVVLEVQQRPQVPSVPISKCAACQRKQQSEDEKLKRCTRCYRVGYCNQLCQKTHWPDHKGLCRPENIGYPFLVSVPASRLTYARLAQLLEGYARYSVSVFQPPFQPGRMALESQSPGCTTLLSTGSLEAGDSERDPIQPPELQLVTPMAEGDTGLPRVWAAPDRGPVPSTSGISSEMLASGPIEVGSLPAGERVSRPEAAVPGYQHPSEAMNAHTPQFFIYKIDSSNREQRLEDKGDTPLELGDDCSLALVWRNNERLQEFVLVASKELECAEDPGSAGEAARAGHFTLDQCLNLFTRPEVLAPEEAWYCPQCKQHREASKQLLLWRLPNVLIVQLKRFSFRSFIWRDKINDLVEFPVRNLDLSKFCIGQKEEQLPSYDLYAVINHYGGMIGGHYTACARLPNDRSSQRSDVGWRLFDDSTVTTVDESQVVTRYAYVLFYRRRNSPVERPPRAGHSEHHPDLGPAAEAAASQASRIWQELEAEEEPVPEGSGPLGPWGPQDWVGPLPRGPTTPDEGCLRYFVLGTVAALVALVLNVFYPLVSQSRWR

Row | IC50 | SMILES
1 | 5 to 50 µM | CN(C)C(=O)c1cn(C[C@]2(O)CCN(C(=O)C(CC(F)(F)F)CC(F)(F)F)CC2(C)C)c(=O)cc1-c1ccccc1 [Example 207, (S)-1-((4-Hydroxy-3,3-dimethyl-1-(4,4,4-trifluoro-2-(2,2,2-trifluoroethyl)butanoyl)piperidin-4-yl)methyl)-N,N-dimethyl-6-oxo-4-phenyl-1,6-dihydropyridine-3-carboxamide]
2 | 50 to 250 µM | C[C@H](CC(=O)N1CCC(O)(Cn2ncc(-c3ccccc3)cc2=O)CC1)c1ccccc1 [Example 37, (R)-2-((4-Hydroxy-1-(3-phenylbutanoyl)piperidin-4-yl)methyl)-5-phenylpyridazin-3(2H)-one]
3 | 5 to 50 µM | CC(CC1CCC1)C(=O)N1CCC(O)(Cn2cnc(-c3ccccc3F)cc2=O)CC1 (racemic) [Example 57, (R,S)-3-((1-(3-Cyclobutyl-2-methylpropanoyl)-4-hydroxypiperidin-4-yl)methyl)-6-(2-fluorophenyl)pyrimidin-4(3H)-one]
4 | 5 to 50 µM | C[C@@H](CC(=O)N1CCC(O)(Cn2cc(C(=O)N(C)C)c(-c3ccccc3)cc2=O)C2(CCCC2)C1)c1ccccc1 (stereo partly drawn) [Example 183, 1-((10-Hydroxy-7-((S)-3-phenylbutanoyl)-7-azaspiro[4.5]decan-10-yl)methyl)-N,N-dimethyl-6-oxo-4-phenyl-1,6-dihydropyridine-3-carboxamide]
5 | 0.5 to 5 µM | C[C@H](CC1CCCCC1)C(=O)N1CCC(O)(Cn2cnc(-c3ccc(CN)cc3)cc2=O)C(C)(C)C1 (stereo partly drawn) [Example 140, 6-(4-(Aminomethyl)phenyl)-3-((1-((R)-3-cyclohexyl-2-methylpropanoyl)-4-hydroxy-3,3-dimethylpiperidin-4-yl)methyl)pyrimidin-4(3H)-one]
6 | 50 to 250 µM | CN(C)C(=O)c1cn(CC2(O)CCN(C(=O)C3CCC(F)(F)C3)CC23CCCC3)c(=O)cc1-c1ccccc1 (centres unmarked) [Example 202, 1-((7-(3,3-Difluorocyclopentane-1-carbonyl)-10-hydroxy-7-azaspiro[4.5]decan-10-yl)methyl)-N,N-dimethyl-6-oxo-4-phenyl-1,6-dihydropyridine-3-carboxamide]
7 | 0.5 to 5 µM | CN(C)C(=O)c1cn(CC2(O)CCN(C(=O)CCc3ccc(F)cc3)CC23CCCC3)c(=O)cc1-c1ccccc1 (centres unmarked) [Example 184, 1-((7-(3-(4-Fluorophenyl)propanoyl)-10-hydroxy-7-azaspiro[4.5]decan-10-yl)methyl)-N,N-dimethyl-6-oxo-4-phenyl-1,6-dihydropyridine-3-carboxamide]
8 | 5 to 50 µM | CCC(CC1CCCCC1)C(=O)N1CCC(O)(Cn2cnc(-c3ccccc3F)cc2=O)CC1 (centres unmarked) [Example 40, 3-((1-(2-(Cyclohexylmethyl)butanoyl)-4-hydroxypiperidin-4-yl)methyl)-6-(2-fluorophenyl)pyrimidin-4(3H)-one]
9 | < 0.5 µM | CCOC(=O)c1cn(C[C@]2(O)CCN(C(=O)[C@H](C)CC3CCCCC3)CC23CCCC3)c(=O)cc1-c1ccccc1 [Example 252, Ethyl 1-(((S)-7-((R)-3-cyclohexyl-2-methylpropanoyl)-10-hydroxy-7-azaspiro[4.5]decan-10-yl)methyl)-6-oxo-4-phenyl-1,6-dihydropyridine-3-carboxylate]
10 | < 0.5 µM | C[C@H](CC1CCCCC1)C(=O)N1CC[C@@](O)(Cn2cc(C(=O)N3CCNC[C@H]3CO)c(-c3ccccc3)cc2=O)C(C)(C)C1 [Example 208, 1-(((S)-1-((R)-3-Cyclohexyl-2-methylpropanoyl)-4-hydroxy-3,3-dimethylpiperidin-4-yl)methyl)-5-((S)-2-(hydroxymethyl)piperazine-1-carbonyl)-4-phenylpyridin-2(1H)-one]
11 | < 0.5 µM | CC(C)N(C)C(=O)c1cn(CC2(O)CCN(C(=O)[C@H](C)CC3CCCCC3)CC2(C)C)c(=O)cc1-c1ccccc1 (mixture of isomers) [Example 73, 1-(((R)-1-((R)-3-Cyclohexyl-2-methylpropanoyl)-4-hydroxy-3,3-dimethylpiperidin-4-yl)methyl)-N-isopropyl-N-methyl-6-oxo-4-phenyl-1,6-dihydropyridine-3-carboxamide and 1-(((S)-1-((R)-3-Cyclohexyl-2-methylpropanoyl)-4-hydroxy-3,3-dimethylpiperidin-4-yl)methyl)-N-isopropyl-N-methyl-6-oxo-4-phenyl-1,6-dihydropyridine-3-carboxamide]

The next lines start with the molecule.

Row | SMILES | IC50
12 | CC(C)N(C)C(=O)c1cn(CC2(O)CCN(C(=O)CCC3CCCCC3)CC2)c(=O)cc1-c1ccccc1 [Example 92, 1-((1-(3-Cyclohexylpropanoyl)-4-hydroxypiperidin-4-yl)methyl)-N-isopropyl-N-methyl-6-oxo-4-phenyl-1,6-dihydropyridine-3-carboxamide] | 0.5 to 5 µM
13 | C[C@H](CC(=O)N1CCC(O)(Cn2ccc(-c3ccccc3)cc2=O)CC1)c1ccccc1 [Example 27, (R)-1-((4-Hydroxy-1-(3-phenylbutanoyl)piperidin-4-yl)methyl)-4-phenylpyridin-2(1H)-one] | 50 to 250 µM
14 | COC[C@H](CC1CCCCC1)C(=O)N1CC[C@@](O)(Cn2cc(C(=O)N(C)C)c(-c3ccccc3)cc2=O)C(C)(C)C1 [Example 160, 1-(((S)-1-((S)-3-Cyclohexyl-2-(methoxymethyl)propanoyl)-4-hydroxy-3,3-dimethylpiperidin-4-yl)methyl)-N,N-dimethyl-6-oxo-4-phenyl-1,6-dihydropyridine-3-carboxamide] | < 0.5 µM
15 | CC(C)C(=O)N1CCC(O)(Cn2cc(C(=O)N(C)C)c(-c3ccccc3)cc2=O)C2(CCCC2)C1 (centres unmarked) [Example 147, 1-((10-Hydroxy-7-isobutyryl-7-azaspiro[4.5]decan-10-yl)methyl)-N,N-dimethyl-6-oxo-4-phenyl-1,6-dihydropyridine-3-carboxamide] | 50 to 250 µM
16 | CC(=O)Nc1ccccc1-c1cc(=O)n(CC2(O)CCN(C(=O)C[C@@H](C)c3ccccc3)CC2)cn1 [Example 85, (R)—N-(2-(1-((4-Hydroxy-1-(3-phenylbutanoyl)piperidin-4-yl)methyl)-6-oxo-1,6-dihydropyrimidin-4-yl)phenyl)acetamide] | 50 to 250 µM
17 | C[C@H](CC1CCCCC1)C(=O)N1CC[C@](O)(Cn2cc(C(=O)N3CCNCC3)c(-c3ccccc3)cc2=O)C2(CCCC2)C1 [Example 210, 1-(((R)-7-((R)-3-Cyclohexyl-2-methylpropanoyl)-10-hydroxy-7-azaspiro[4.5]decan-10-yl)methyl)-4-phenyl-5-(piperazine-1-carbonyl)pyridin-2(1H)-one] | 5 to 50 µM
18 | CN(C)C(=O)c1cn(CC2(O)CCN(C(=O)c3ncoc3-c3ccccc3)CC23CCCC3)c(=O)cc1-c1ccccc1 (centres unmarked) [Example 192, 1-((10-Hydroxy-7-(5-phenyloxazole-4-carbonyl)-7-azaspiro[4.5]decan-10-yl)methyl)-N,N-dimethyl-6-oxo-4-phenyl-1,6-dihydropyridine-3-carboxamide] | 5 to 50 µM
19 | CCOCCC(=O)N1CCC(O)(Cn2cc(C(=O)N(C)C)c(-c3ccccc3)cc2=O)C2(CCCC2)C1 (centres unmarked) [Example 182, 1-((7-(3-Ethoxypropanoyl)-10-hydroxy-7-azaspiro[4.5]decan-10-yl)methyl)-N,N-dimethyl-6-oxo-4-phenyl-1,6-dihydropyridine-3-carboxamide] | 5 to 50 µM
20 | C[C@H](CC1CCCCC1)C(=O)N1CCC(O)(Cn2cc(C(=O)N3CCNCC3)c(-c3ccccc3)cc2=O)C2(CCCCC2)C1 (stereo partly drawn) [Example 238, 1-((2-((R)-3-Cyclohexyl-2-methylpropanoyl)-5-hydroxy-2-azaspiro[5.5]undecan-5-yl)methyl)-4-phenyl-5-(piperazine-1-carbonyl)pyridin-2(1H)-one] | < 0.5 µM
21 | C=CC[C@H](CC1CCCCC1)C(=O)N1CCC(O)(Cn2cnc(-c3ccccc3F)cc2=O)CC1 [Example 110, (R)-3-((1-(2-(Cyclohexylmethyl)pent-4-enoyl)-4-hydroxypiperidin-4-yl)methyl)-6-(2-fluorophenyl)pyrimidin-4(3H)-one] | 0.5 to 5 µM
22 | CN(C)C(=O)c1cn(CC2(O)CCN(C(=O)C3CCC(F)C3)CC23CCCC3)c(=O)cc1-c1ccccc1 (centres unmarked) [Example 177, 1-((7-(3-Fluorocyclopentane-1-carbonyl)-10-hydroxy-7-azaspiro[4.5]decan-10-yl)methyl)-N,N-dimethyl-6-oxo-4-phenyl-1,6-dihydropyridine-3-carboxamide] | 50 to 250 µM
23 | C[C@H](CC1CCCCC1)C(=O)N1CC[C@@](O)(Cn2cc(C(=O)N3CCNCC3)c(-c3ccccc3)cc2=O)C2(CCCC2)C1 [Example 212, 1-(((S)-7-((R)-3-Cyclohexyl-2-methylpropanoyl)-10-hydroxy-7-azaspiro[4.5]decan-10-yl)methyl)-4-phenyl-5-(piperazine-1-carbonyl)pyridin-2(1H)-one] | < 0.5 µM
24 | C[C@H](CC(=O)N1CCC(O)(Cn2cc(C(=O)N3CCOCC3)c(-c3ccccc3)cc2=O)CC1)c1ccccc1 [Example 77, (R)-1-((4-Hydroxy-1-(3-phenylbutanoyl)piperidin-4-yl)methyl)-5-(morpholine-4-carbonyl)-4-phenylpyridin-2(1H)-one] | 0.5 to 5 µM
25 | CN(C)C(=O)c1cn(CC2(O)CCN(C(=O)c3c[nH]c4ccccc34)CC23CCCC3)c(=O)cc1-c1ccccc1 (centres unmarked) [Example 190, 1-((10-Hydroxy-7-(1H-indole-3-carbonyl)-7-azaspiro[4.5]decan-10-yl)methyl)-N,N-dimethyl-6-oxo-4-phenyl-1,6-dihydropyridine-3-carboxamide] | 50 to 250 µM
26 | C[C@H](CC(=O)N1CCC(O)(Cn2cnc(-c3cccc4ccccc34)cc2=O)CC1)c1ccccc1 [Example 20, (R)-3-((4-Hydroxy-1-(3-phenylbutanoyl)piperidin-4-yl)methyl)-6-(naphthalen-1-yl)pyrimidin-4(3H)-one] | 5 to 50 µM
